Experiments:
Type in all cases: cell-based
SW620 = assay: MTS cell proliferation assay, Table 6; conditions: 10 μM, 72 h, relative to DMSO control
Description: (§1) Control cell lines used were HeLa cells (cell growth not controlled by canonical Wnt signalling) and colorectal cancer cell lines LS174T and HCT116 (with mutant β-catenin N-terminal phosphorylation sites). Target cell lines used were colorectal cancer cell lines WiDr, LoVo, HCT-8, HCT-15, COL0205, DLD-1, HT-29, SW620, SW1463, SW480 which all carry a mutant APC gene. Target cells, along with L Wnt3a-expressing cells and HEK293 cells, were purchased from ATCC (American Type Culture Collection) and maintained according to the supplier's recommendations. Wnt3a containing conditioned media (Wnt3a-CM) from L Wnt3a expressing cells was harvested as described by ATCC.
(§2) For the experiment giving the results shown in Table 6, cells were exposed to cell culture medium (including 10% FBS) containing 10 μM of the compound to be tested 24 hours after seeding (3000 cells on 96-well plates). Medium was changed daily. After 72 hours, an MTS assay (CellTiter 96® AQueous Non-Radioactive Cell Proliferation Assay—Promega) was carried out according to the standard procedure. 0.1% DMSO was used as a control.
(§3) The quantity of reduced MTS product (as measured by the absorbance at 490 nm) is directly proportional to the number of living cells in the culture and thus allows a direct comparison of cell proliferation in each case. DMSO was used as a control. The following formula was used to determine single well relative A490 sample values: ((Sample A490−Average A490t0)*100)/(Average A490t720.1% DMSO control−Average A490t0)
(§4) Data shown are A490-percentage values relative to the DMSO control, calculated as described above, and represent averages from 2 to 4 independent experiments (except SW1463 cells treated with IWR-1 which reports only a single experiment). Compounds IWR-1 and XAV939 are known Wnt pathway inhibitors.

HCT-8 = assay: MTS cell proliferation assay, Table 6; conditions: 10 μM, 72 h, relative to DMSO control
Description: as §1, §2, §3, §4

WiDr = assay: MTS cell proliferation assay, Table 6; conditions: 10 μM, 72 h, relative to DMSO control
Description: as §1, §2, §3, §4

LS174T = assay: MTS cell proliferation assay, Table 6; conditions: LS174T (control); 10 μM, 72 h; relative to DMSO control
Description: as §1, §2, §3, §4

DLD-1 = assay: MTS cell proliferation assay, Table 6; conditions: 10 μM, 72 h, relative to DMSO control
Description: as §1, §2, §3, §4

LoVo = assay: MTS cell proliferation assay, Table 6; conditions: 10 μM, 72 h, relative to DMSO control
Description: as §1, §2, §3, §4

HT-29 = assay: MTS cell proliferation assay, Table 6; conditions: 10 μM, 72 h, relative to DMSO control
Description: as §1, §2, §3, §4

HCT-15 = assay: MTS cell proliferation assay, Table 6; conditions: 10 μM, 72 h, relative to DMSO control
Description: as §1, §2, §3, §4

HeLa cells = assay: MTS cell proliferation assay, Table 6; conditions: HeLa (control); 10 μM, 72 h; relative to DMSO control
Description: as §1, §2, §3, §4

HCT116 = assay: MTS cell proliferation assay, Table 6; conditions: HCT116 (control); 10 μM, 72 h; relative to DMSO control
Description: as §1, §2, §3, §4

COLO205 = assay: MTS cell proliferation assay, Table 6; conditions: 10 μM, 72 h, relative to DMSO control
Description: as §1, §2, §3, §4

SW1463 = assay: MTS cell proliferation assay, Table 6; conditions: 10 μM, 72 h, relative to DMSO control
Description: as §1, §2, §3, §4

SW480 = assay: MTS cell proliferation assay, Table 6; conditions: 10 μM, 72 h, relative to DMSO control
Description: as §1, §2, §3, §4

control cell lines = assay: MTS cell proliferation assay, Table 6, mean; conditions: HeLa, HCT116, LS174T; 10 μM, 72 h
Description: as §1, §2, §3, §4

APC mutant cell lines = assay: MTS cell proliferation assay, Table 6, mean; conditions: 10 μM, 72 h; for Ratio of means: APC mutant cell lines versus control cell lines; for Mean proliferation (APC mutant cell lines): ten APC mutant colorectal lines
Description: as §1, §2, §3, §4

[1] = test system: SW480 colon carcinoma cells; assay: MTS cell proliferation assay, Table 5; conditions: Homo sapiens; SW480, 10 μM, 72 h; relative to DMSO control; read-out: Cell proliferation (%) for test compounds
Experimental: For the experiment giving the results shown in Table 5, cells (3000 per well) were seeded on 96 well plates (eight replicates per treatment). After 24 hours, and daily thereafter, cell culture medium (including 10% FBS) was mixed with 10 μM compounds or with 0.1% DMSO vehicle and then added to the wells. Sixteen wells of seeded control cells, defining incubation time zero (t0=24 hour after cell seeding), were incubated with 20 μl substrate in 100 μl phenol free D-MEM (Invitrogen) for 2 hours, as described in the CellTiter 96® AQueous Non-Radioactive Cell Proliferation Assay protocol (Promega). The A490 was recorded. The treatment samples were likewise measured after 72 hours.
as §3
The proliferation of SW480 cells (in percent) is the A492 value relative to that of the DMSO control.

canonical Wnt signaling [2] = assay: IC50 in STF/REN HEK293 cells, 50% Wnt3a-CM; conditions: Homo sapiens; STF/REN HEK293, 50% Wnt3a-CM, 24 h
Experimental: IC50 values were calculated using STF/REN HEK293 cells prepared essentially according to Example 22. Briefly, HEK293 cells (80,000 cells per well) were seeded in 48-well plates coated with poly-L lysine. 24 hours after seeding, the cells were incubated for an additional 24 hours with various compound concentrations in 50% Wnt3a-CM. After compound exposure, the cells were lysed and the firefly luciferase and Renilla activities were measured on a 20/20n Luminometer (Turner BioSystems) as described in the Dual-Glo™ Luciferase Assay System Technical Manual (Promega).
XLfit (idbs) was used to determine the IC50 and GI50 values in inhibition experiments. The data were fit to the following formulae:
IC50: Langmuir Binding Isotherm: fit=((A+(B*x))+(((C−B)*(1−exp((−1*D)*x)))/D)) res=(y−fit)

canonical Wnt signaling [3] = assay: ST-Luc (SuperTOPFlash) Luciferase assay in HEK293 cells, 30% Wnt3a-CM; conditions: Homo sapiens, HEK293; 10 μM compound, 30% Wnt3a-CM, 24 h; relative to DMSO control
Experimental: Inhibition of Wnt signaling by compound No. 1 was quantified in vitro using a Luciferase assay in HEK293 cells transiently transfected with SuperTOPFlash plasmid (ST-Luc) (Veeman M T et al., Curr. Biol. 13: 680-685, 2003) at concentrations from 0.1-10 μM. HEK293 cells were purchased from ATCC (American Type Culture Collection) and maintained according to suppliers recommendations.
Transfection was performed using 80000 HEK293 cells seeded in 48-well plates coated with poly-L lysine. After 24 hours, 0.25 μg total plasmid DNA (0.23 μg SuperTOPFlash+0.02 μg pRL-TK (Renilla)—Promega) and 0.75 μl FuGENE6 (Roche) was combined in a total volume in 25 μl Opti-MEM® (Invitrogen) as described by the manufacturer (Roche). The transfection mixture was added to the plated cells and media were changed after 24 hours.
The Luciferase assay was performed by incubating transfected cells for 24 hours with various concentrations of compound No. 1 in 30% Wnt3a-CM (Wnt3a containing conditioned medium from L Wnt3a cells was harvested as described by ATCC). All treated reporter cells were finally lysed and the firefly luciferase and Renilla activities were measured on a 20/20n Luminometer (Turner BioSystems) as described in the Dual-Glo™ Luciferase Assay System Technical Manual (Promega).
HEK293 cells were transfected, grown and assayed as described in Example 22. 24 hours after seeding, the cells were incubated for an additional 24 hours with 10 μM concentrations of compounds in 30% Wnt3a-CM.
The percent activities shown in Table 3 are calculated relative to DMSO as a control. Some values shown are averages of multiple measurements. Compound XAV939 (Novartis; Huang et al., Nature (2009), 461, pp. 614-20) which is used as a positive control, has an activity of 7%.

IC50 (canonical Wnt signaling [2]) [nM]	Compound	Cell proliferation (%) (SW620)	Cell proliferation (%) (HCT-8)	Cell proliferation (%) (WiDr)	Cell proliferation (%) (LS174T)	Cell proliferation (%) (DLD-1)	Cell proliferation (%) (LoVo)	Cell proliferation (%) (HT-29)	Cell proliferation (%) (HCT-15)	Cell proliferation (%) (HeLa cells)	Cell proliferation (%) (HCT116)	Cell proliferation (%) (COLO205)	Cell proliferation (%) (SW1463)	Cell proliferation (%) (SW480)	Mean proliferation (control cell lines) (control cell lines) [%]	Ratio of means (APC mutant cell lines)	Mean proliferation (APC mutant cell lines) (APC mutant cell lines) [%]	activity at 10 µM [1] [%]	activity at 10 µM (canonical Wnt signaling [3]) [%]
–	O=C(Nc1cccc2cccnc12)c1ccc(N2C(=O)[C@@H]3[C@H](C2=O)[C@@H]2C=C[C@H]3C2)cc1 [IWR-1, reference compound]	48	70	61	63	97	73	33	64	77	83	55	57	62	74	0.83	62	–	–
< 100	Cc1ccc(-c2nnc(CSc3nnc(-c4ccncc4)n3-c3ccccc3Cl)o2)cc1 [compound 60]	50	51	70	105	78	67	58	54	92	87	53	12	59	95	0.58	55	49	17.3

Reference: patent US8883827B2, “Azole derivatives as WTN pathway inhibitors” (Oslo University Hospital HF, priority 2009, dated 2014)
